Data published in ChEMBL document CHEMBL1201862, “PubChem BioAssay data set” (2004).
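The compound was tested at five concentrations on cells cultured in 96-well plates, with a 48-hour exposure period. GI50 = concentration required for 50% inhibition of growth.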 Calls of active or inactive are those of the source. Cut-off read from the data, not from the text of the source: active = GI50 up to about 1.1 µM and inactive = higher.

Legend:
Assay in all cases: NCI-60 cell line screen, 48 h
SF-539 = tested on: SF-539
MDA-MB-231 = tested on: MDA-MB-231
DU-145 = tested on: DU-145
LOX IMVI = tested on: LOX IMVI
UACC-62 = tested on: UACC-62
PC-3 = tested on: PC-3
K562 = tested on: K562
SK-MEL-28 = tested on: SK-MEL-28
SNB-75 = tested on: SNB-75
HOP-92 = tested on: HOP-92
HCT-15 = tested on: HCT-15
U-251 = tested on: U-251
NCI-H226 = tested on: NCI-H226
A498 = tested on: A498
OVCAR-8 = tested on: OVCAR-8
SF-268 = tested on: SF-268
SK-OV-3 = tested on: SK-OV-3
SNB-19 = tested on: SNB-19
RPMI-8226 = tested on: RPMI-8226

CC(=O)Nc1nc(NC(C)=O)c2nc(CO)[nH]c2n1
GI50 (SF-539): > 100 µM (inactive)
GI50 (MDA-MB-231): > 100 µM (inactive)
GI50 (DU-145): > 100 µM (inactive)
GI50 (LOX IMVI): > 100 µM (inactive)
GI50 (UACC-62): > 100 µM (inactive)
GI50 (PC-3): > 100 µM (inactive)
GI50 (K562): > 100 µM (inactive)
GI50 (SK-MEL-28): > 100 µM (inactive)
GI50 (SNB-75): > 100 µM (inactive)
GI50 (HOP-92): > 100 µM (inactive)
GI50 (HCT-15): > 100 µM
GI50 (U-251): > 100 µM (inactive)
GI50 (NCI-H226): > 100 µM (inactive)
GI50 (A498): > 100 µM (inactive)
GI50 (OVCAR-8): > 100 µM (inactive)
GI50 (SF-268): > 100 µM (inactive)
GI50 (SK-OV-3): > 100 µM (inactive)
GI50 (SNB-19): > 100 µM (inactive)

CC(=O)OCOC(=O)CN(CC(=O)OCOC(C)=O)Cc1cc2c(cc1OC(C)=O)Oc1cc(OC(C)=O)c(CN(CC(=O)OCOC(C)=O)CC(=O)OCOC(C)=O)cc1C21OC(=O)c2ccccc21
GI50 (SF-539): 0.255 µM (active)
GI50 (MDA-MB-231): 1.45 µM (inactive)
GI50 (DU-145): 1.47 µM (inactive)
GI50 (LOX IMVI): 0.299 µM (active)
GI50 (UACC-62): 0.232 µM (active)
GI50 (PC-3): 1.42 µM (inactive)
GI50 (K562): 0.122 µM (active)
GI50 (SK-MEL-28): 0.484 µM (active)
GI50 (SNB-75): 1.36 µM (inactive)
GI50 (HOP-92): 1.05 µM (active)
GI50 (HCT-15): 1.66 µM
GI50 (U-251): 1.87 µM (inactive)
GI50 (NCI-H226): 1.34 µM (inactive)
GI50 (A498): 1.25 µM (inactive)
GI50 (OVCAR-8): 1.15 µM (inactive)
GI50 (SF-268): 1.27 µM (inactive)
GI50 (SK-OV-3): 2.54 µM (inactive)
GI50 (SNB-19): 1.27 µM (inactive)

c1ccc2c(c1)Nc1cccc3c1c-2nc1cc2ccccc2cc13
GI50 (SF-539): 1.8 µM (inactive)
GI50 (MDA-MB-231): 1.1 µM (active)
GI50 (DU-145): 1.7 µM (inactive)
GI50 (LOX IMVI): 1.55 µM (inactive)
GI50 (UACC-62): 2.12 µM (inactive)
GI50 (PC-3): 1.53 µM (inactive)
GI50 (K562): 0.513 µM (active)
GI50 (SK-MEL-28): 1.74 µM (inactive)
GI50 (SNB-75): 1.41 µM (inactive)
GI50 (HOP-92): 1.51 µM (inactive)
GI50 (U-251): 2.03 µM (inactive)
GI50 (NCI-H226): 1.85 µM (inactive)
GI50 (A498): 2.88 µM (inactive)
GI50 (SF-268): 1.71 µM (inactive)
GI50 (SK-OV-3): 1.64 µM (inactive)
GI50 (SNB-19): 1.75 µM (inactive)

Cc1c2c(Cl)c3c(c(Cl)c2c(C)c2c(Cl)c4c(c(Cl)c12)C(c1ccccc1)(c1ccccc1)C4(c1ccccc1)c1ccccc1)C(c1ccccc1)(c1ccccc1)C3(c1ccccc1)c1ccccc1
GI50 (SF-539): > 100 µM (inactive)
GI50 (MDA-MB-231): > 100 µM (inactive)
GI50 (DU-145): > 100 µM (inactive)
GI50 (LOX IMVI): > 100 µM (inactive)
GI50 (UACC-62): > 100 µM (inactive)
GI50 (PC-3): > 100 µM (inactive)
GI50 (K562): > 100 µM (inactive)
GI50 (SK-MEL-28): > 100 µM (inactive)
GI50 (SNB-75): > 100 µM (inactive)
GI50 (HOP-92): > 100 µM (inactive)
GI50 (HCT-15): > 100 µM
GI50 (U-251): > 100 µM (inactive)
GI50 (NCI-H226): > 100 µM (inactive)
GI50 (A498): > 100 µM (inactive)
GI50 (OVCAR-8): > 100 µM (inactive)
GI50 (SF-268): > 100 µM (inactive)
GI50 (SK-OV-3): > 100 µM (inactive)
GI50 (SNB-19): > 100 µM (inactive)

CCOc1ccc(/N=N/C2C(=O)N(C(=O)CC(=O)Nc3ccccc3)N=C2C)cc1 (stereo not drawn)
GI50 (SF-539): 35.2 µM (inactive)
GI50 (MDA-MB-231): 39.8 µM (inactive)
GI50 (DU-145): > 100 µM (inactive)
GI50 (LOX IMVI): 43.3 µM (inactive)
GI50 (UACC-62): 39.5 µM (inactive)
GI50 (PC-3): > 100 µM (inactive)
GI50 (SK-MEL-28): 48.5 µM (inactive)
GI50 (SNB-75): 23.1 µM (inactive)
GI50 (HOP-92): 28.5 µM (inactive)
GI50 (HCT-15): 57.4 µM
GI50 (U-251): 34.8 µM (inactive)
GI50 (NCI-H226): > 100 µM (inactive)
GI50 (A498): 79.4 µM (inactive)
GI50 (OVCAR-8): > 100 µM (inactive)
GI50 (SF-268): 61.8 µM (inactive)
GI50 (SNB-19): 36.5 µM (inactive)

O=C(O)C1CCCCC1c1c2ccc(=O)c(O)c-2oc2c(O)c(O)ccc12 (stereo not drawn)
GI50 (MDA-MB-231): 18.6 µM (inactive)
GI50 (DU-145): 52.1 µM (inactive)
GI50 (LOX IMVI): 13.8 µM (inactive)
GI50 (UACC-62): 23.6 µM (inactive)
GI50 (PC-3): > 100 µM (inactive)
GI50 (K562): 17.9 µM (inactive)
GI50 (SK-MEL-28): 69.5 µM (inactive)
GI50 (SNB-75): 28.3 µM (inactive)
GI50 (HOP-92): 31.6 µM (inactive)
GI50 (U-251): 7.4 µM (inactive)
GI50 (NCI-H226): 12.1 µM (inactive)
GI50 (A498): 21.7 µM (inactive)
GI50 (OVCAR-8): 22 µM (inactive)
GI50 (SF-268): 9.38 µM (inactive)
GI50 (RPMI-8226): 29.9 µM (inactive)
GI50 (SK-OV-3): 50.6 µM (inactive)
GI50 (SNB-19): 29.4 µM (inactive)
